Legend:
MOLM13 cells = assay: Global quantitative proteomics of protein levels; format: cell-based; conditions: MOLM13, 100 nM, 4 h
Protocol: Global Quantitative Proteomics Sample Preparation and Mass Spectrometry Acquisition Global Quantitative Proteomics was performed according to the previously reported method.7 Briefly, 1.0×10^6 MOLM13 cells were seeded in 12-well plates and small molecules of interest were added, and cells were incubated at 37 °C, 5% CO2 for 4 hours. Cells were collected […]
15 sec in total, 11% amplitude) in lysis buffer (5% SDS in 50 mM triethylammonium bicarbonate (TEAB), pH 7.55), and cleared by centrifugation (21,000 × g, 4 °C, 10 min). After protein quantification by BCA protein assay, the lysates were diluted to 1.5 mg/mL with the lysis buffer. The diluted lysates (60 μL) were reduced by addition of dithiothreitol (20 mM) at 24 °C for 30 min then alkylated by addition of iodoacetamide (40 mM) and incubation in the dark at 24 °C for 30 min.

[1] = biological target: T1, His6-CRBN/DDB1 and GST-BRD4(BD2) (Homo sapiens, UniProt O60885+Q96SW2); assay: AlphaScreen ternary complex formation, His6-CRBN/DDB1 and GST-BRD4(BD2); format: binding
T1 construct: His6-CRBN/DDB1 complex and GST-BRD4 BD2 domain; purchased Epicypher (GST-BRD4(BD2)); Bristol Myers Squibb gift (His6-CRBN/DDB1) 15-0013
Protocol: AlphaScreen was performed according to the previously reported method.7 Briefly, for AlphaScreen of His6-CRBN/DDB1, GST-IKZF1 and (S)-, (R)- or rac-lenalidomide-d3, a solution of 100 nM His6-CRBN/DDB1 and 200 nM GST-IKZF1 in 1x AlphaScreen buffer (5 µL) and a solution of the indicated compound in 1x AlphaScreen buffer (5 µL) were added to a each well of a 384-well Optiplate and incubated at 24 °C for 1 h. To each well, a solution of 5 µL of 60 µg/mL AlphaScreen Glutathione Donor beads, 60 µg/mL AlphaLISA Nickel Chelate Donor beads in 1× AlphaScreen buffer was added to each well and incubated at 24 °C for 1 h in the dark and the plate was analyzed. For AlphaScreen of His6-CRBN/DDB1, GST-BRD4(BD2) and bivalent degraders, a solution of 750 nM His-CRBN/DDB1 and 375 nM GST-BRD4(BD2) in 1x AlphaScreen buffer (5 µL) and a solution of the indicated compound in 1x AlphaScreen buffer (5 µL) were added to a each well of a 384-well Optiplate and incubated at 24 °C for 1 h. To each well, a solution of 5 µL of 60 µg/mL AlphaScreen Glutathione Donor beads, 60 µg/mL AlphaLISA Nickel Chelate Donor beads in 1× AlphaScreen buffer was added to each well and incubated at 24 °C for 1 h in the dark and the plate was analyzed. […]
heated at 95 °C for 5 min. 10 µL of the immunoprecipitated sample was load on a 12% Tris-glycine gel and probe-labeling was visualized by fluorescence signal. Separately, 10 µL of the immunoprecipitated sample and the “input” sample were load on a 12% Tris-glycine gel and analyzed by Western blotting. […]
Parental cell lines were stably infected with a unique 24-nucleotide DNA barcode via lentiviral transduction and blasticidin selection. […] Passing barcoded lines were then pooled (20-25 cell lines per pool) based on doubling time and frozen in assay-ready vials.
Test compounds were added to 384-well plates and run at 8 pt. dose with 3-fold dilutions, the highest concentration of 25 µM in triplicate. These assay ready plates were then seeded with […]

His6-CRBN/DDB1 = His6-CRBN/DDB1 (Homo sapiens, UniProt Q96SW2); assay: TR-FRET ligand displacement assay (Thal-FITC tracer) with His6-CRBN/DDB1
[2] = biological target: T2, thalidomide-binding domain of CRBN (CULT) (Homo sapiens, UniProt Q96SW2); assay: Photoaffinity labeling binding site mapping with i-pLen probes by LC-MS/MS; conditions: equimolar mixture of i-pLen probes, photolysis after 30 min at 24 °C
T2 construct: made in house
T2 sequence (Q96SW2 318-426 limits assumed): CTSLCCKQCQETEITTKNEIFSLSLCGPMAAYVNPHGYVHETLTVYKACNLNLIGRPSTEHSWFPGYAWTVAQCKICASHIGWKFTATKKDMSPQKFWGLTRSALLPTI
Protocol: (v21.1.1) and Adobe Illustrator (v24.1).
MM.1S, MOLM13, Jurkat, and BxPC3 […]
μg/mL), and 10% (v/v) FBS.
Western Blotting Procedures […]
lysates and the concentration was adjusted using lysis buffer. 5× SDS-PAGE loading buffer […]
Protein samples (8–15 μL per lane) were […]
precast gels for medium molecular weight proteins. Gels were transferred to membranes using […]
for high molecular weight proteins. Membranes were stained with Ponceau S solution to visualize transfer and protein loading.
Degradation assay by flow cytometry […]
resuspension in DMEM +/– without phenol red. For IKZF1 degradation assay, propidium […]
equipped with a high throughput sampler. […]
using the BD FACSDiva software v9.1. For each experimental condition, the arithmetic mean […]
comparing compound treatment to DMSO control.
Structural proteomics mass spectrometry sample preparation […]
addition of a pre-mixed cocktail (final concentrations: 100 μM cleavable biotin picolyl-azide probe, 250 μM THPTA, 250 μM CuSO4, 2.5 mM freshly dissolved sodium ascorbate) and incubated for 1.5 h at 25 °C with inversion. After excess reagent was removed by acetone precipitation, the protein pellet was resuspended in 100 mM TEAB (50 μL, pH=8.5) and 100 mM DTT/PBS (1.5 μL, final concentration 3 mM) was added before incubating for 30 min at 25 °C with inversion. […]
The raw data were analyzed using Proteome Discoverer 2.4.1.15. […]

[3] = Protein CRBN, from IC50 with Correction Factor 1.43

## [2H]C1([2H])CC([2H])(N2Cc3cc(NC(=O)CCCCCCCCNC(=O)C[C@@H]4N=C(c5ccc(Cl)cc5)c5c(sc(C)c5C)-n5c(C)nnc54)ccc3C2=O)C(=O)NC1=O (mixture of isomers) [JQ1-rac-Len-d3]
MOLM13 cells; protein AHCY
  FC [fold change abundances (rac/DMSO)]: 0.9686
  logFC (rac vs DMSO): 0.2393
MOLM13 cells; protein GNB4
  FC [fold change abundances (rac/DMSO)]: -1.362
  logFC (rac vs DMSO): -0.6098
MOLM13 cells; protein NUP88
  FC [fold change abundances (rac/DMSO)]: -1.247
  logFC (rac vs DMSO): -0.5083
MOLM13 cells; protein SATB2
  FC [fold change abundances (rac/DMSO)]: -1.143
  logFC (rac vs DMSO): -0.4122
MOLM13 cells; protein TUBB4B
  FC [fold change abundances (rac/DMSO)]: 1.098
  logFC (rac vs DMSO): 0.3694
[1]
  ternary complex formation between His6-CRBN/DDB1 and GST-BRD4(BD2): much less than JQ1-(S)-Len-d3
His6-CRBN/DDB1; KD, competitive TR-FRET, His6-CRBN/DDB1
  Kd: < 2 nM

## C#CCCC1(CC(=O)Nc2ccc3c(c2)CN([C@H]2CCC(=O)[15NH]C2=O)C3=O)N=N1 [(S)-i-pLen]
[2]
  CRBN residue labeled by the probe: His353

## C#CCCC1(CC(=O)Nc2ccc3c(c2)C[15N]([C@@H]2CCC(=O)NC2=O)C3=O)N=N1 [(R)-i-pLen]
[2]
  CRBN residue labeled by the probe: Tyr355

## Cc1sc2c(c1C)C(c1ccc(Cl)cc1)=N[C@@H](CC(=O)NCCCCCCCCC(=O)N[C@@H](Cc1ccccc1)C(=O)N[C@@H]1CCC(=O)NC1=O)c1nnc(C)n1-2 [JQ1-FepicQ]
[1]
  ternary complex formation between His6-CRBN/DDB1 and GST-BRD4(BD2): minimally promoted the ternary complex
His6-CRBN/DDB1; Protein CRBN, Thalidomide-FITC tracer 50 nM
  pIC50 (M): 6.08 M
His6-CRBN/DDB1; Protein CRBN, Thalidomide-FITC tracer 50 nM, protein […]
  IC50: 840 nM
His6-CRBN/DDB1; [3]
  Kd: 589 nM
  pKD (M): 6.23 M

Reference: PMC12117711, “The contribution of cyclic imide stereoisomers on cereblon-dependent activity†” (Chemical Science, 2025)
